Data as given in patent US5939414A, “Benzodiazepine hydrazide derivatives as inhibitors of HIV integrase” (Merck & Co., Inc., priority 1997, dated 1999).
pIC50: −log10 of the molar value.

Experiments:
[1] = target: T1, HIV-1 integrase (Human immunodeficiency virus type 1 group M subtype B, UniProt P04585); experiment: Assembly of HIV-1 integrase as catalytically active complex; assay type: biochemical; parameters: HIV-1 Integrase
Procedure: Assay for Assembly of HIV-1 Integrase as Catalytically Active Complex
Inhibition of assembly of HIV-1 Integrase was conducted according to Wolfe, A. L. et al., J. Virol. 70, 1424 (1996), herein incorporated by reference for these purposes.

[2] = target: T2, HIV integrase (Human immunodeficiency virus type 1 group M subtype B, UniProt P04585); experiment: Inhibition of strand transfer by HIV integrase; assay type: biochemical
T2 construct: HIV Integrase
Procedure: Assay for Inhibition of Strand Transfer by HIV Integrase
Inhibition of strand transfer was conducted according to Hazuda, D. J. et al. Nucleic Acids Res., 22, 1121 (1994), hereby incorporated by reference for these purposes.

[3] = target: T1, HIV-1 integrase; experiment: biochemical; parameters: HIV-1 integrase
Procedure: HIV Integrase Assay: Substrate Cleavage
An assay for trimming of 3' end of HIV long terminal repeat terminus by HIV-1 integrase was conducted according to LaFemina, E. R. et al., J. Virol. 10, 5624 (1991), herein incorporated by reference for these purposes. To assay inhibition of HIV integrase substrate cleavage, the reaction was conducted with inhibitor having various concentrations in the range of 0.1 to 100 μM.

Compound	pIC50 [1]	pIC50 [2]	pIC50 [3]
Cc1[nH]cnc1C(=O)NNC1=Nc2ccc(Br)cc2C(c2ccccc2Cl)=NC1 [Compound VII]	5.00	5.30	5.70
O=C(NNC1=Nc2ccccc2C(c2ccccc2)=NC1)c1cnccn1 [Compound VI]	5.30	5.52 to 5.70	5.70
